Two compounds from patent publication US20220055989A1, “CONDENSED PYRROLES AS NOVEL BROMODOMAIN INHIBITORS” (ALBERT LUDWING UNIVERSITÄT FREIBURG, priority 2018, published 2022) can be followed below.

For assay [1], the target named is T1, BRD1 (Homo sapiens, UniProt O95696).
T1 construct: T7 phage strains displaying bromodomains were grown in parallel; made in house; host or cells: T7 phage grown in an E. coli host derived from the BL21 strain
Put plainly: Bromodomain assay % Ctrl determination BRD1. Particulars: lower numbers indicate a stronger binding. As to the method: (§1) Compounds that bind the bromodomain prevent its binding to the immobilized ligand thus reducing the amount of protein captured. […] Hits are identified by measuring the amount of bromodomain captured in test versus control samples. Bromodomain assays for % Ctrl determination: T7 phage strains displaying bromodomains were grown in parallel in 24-well blocks in an E. coli host derived from the BL21 strain. E. coli were grown to log-phase and infected with T7 phage from a frozen stock (multiplicity of infection=0.4) and incubated with shaking at 32° C. until lysis (90-150 minutes). The lysates were centrifuged (5,000×g) and filtered (0.2 μm) to remove cell debris. […] The liganded beads were blocked with excess biotin and washed with blocking buffer (SeaBlock (Pierce), 1% BSA, 0.05% Tween 20, 1 mM DTT) to remove unbound ligand and to reduce non-specific phage binding. […] Test compounds were prepared as 1000× stocks in 100% DMSO and subsequently diluted 1:25 in monoethylene glycol (MEG). The compounds were then diluted directly into the assays such that the final concentrations of DMSO and MEG were 0.1% and 2.4%, respectively. All reactions were performed in polypropylene 384-well plates in a final volume of 0.02 ml. […] The bromodomain concentration in the eluates was measured by qPCR. […]

Assay [2] has as its target T2, BRPF3 (Homo sapiens, UniProt Q9ULD4).
T2 construct: T7 phage strains displaying bromodomains were grown; host or cells: T7 phage in E. coli derived from BL21
Put plainly: Bromodomain assay % Ctrl determination BRPF3. Particulars: lower numbers indicate a stronger binding. Here is the method: as §1

Assay [3] deals with T3, EP300 (Homo sapiens, UniProt Q09472).
T3 construct: T7 phage strains displaying bromodomains were grown; host or cells: T7 phage in E. coli derived from BL21
T3 sequence (Q09472 1049-1156 limits assumed): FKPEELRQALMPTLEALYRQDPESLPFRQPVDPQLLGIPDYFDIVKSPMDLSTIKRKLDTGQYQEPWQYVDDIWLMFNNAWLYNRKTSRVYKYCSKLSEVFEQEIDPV
Put plainly: Bromodomain assay % Ctrl determination EP300. The conditions noted are these: lower numbers indicate a stronger binding. As to the method: as §1

Assay [4] concerns the target T4, SMARCA4 (Homo sapiens, UniProt P51532).
T4 construct: T7 phage strains displaying bromodomains were grown in parallel; host or cells: T7 phage grown in E. coli host derived from BL21
Put plainly: Bromodomain assay % Ctrl determination SMARCA4. The conditions noted are these: lower numbers indicate a stronger binding. Here is the method:
as §1

In assay [5] the target is T5, TAF1L(2) (Homo sapiens, UniProt Q8IZX4).
T5 construct: FALZ, PBRM1-BD2, BPRM1-BDS, TAF1-BD2, TAF1L-BD2; host or cells: T7 phage grown in E. coli host derived from BL21
T5 sequence (Q8IZX4 1517-1626 limits assumed): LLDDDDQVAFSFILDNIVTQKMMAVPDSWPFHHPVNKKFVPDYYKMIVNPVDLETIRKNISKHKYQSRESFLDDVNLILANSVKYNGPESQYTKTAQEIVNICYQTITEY
Put plainly: BROMOscan Kd determination TAF1L(2). The assay is classed as binding. Here is the method:
(§2) Bromodomain profiling was carried out on the basis of BROMOscan™. This platform accounted for the indirect determination of the dissociation constants between 19 bromodomains and the compound of formula (13), by binding competition against a reference immobilized ligand. Compounds that bind the bromodomain prevent its binding to the immobilized ligand thus reducing the amount of protein captured. […] Hits are identified by measuring the amount of bromodomain captured in test versus control samples. Bromodomain assays for Kd determination: T7 phage strains displaying bromodomains were grown in parallel in 24-well blocks in an E. coli host derived from the BL21 strain. E. coli were grown to log-phase and infected with T7 phage from a frozen stock (multiplicity of infection=0.4) and incubated with shaking at 32° C. until lysis (90-150 minutes). The lysates were centrifuged (5,000×g) and filtered (0.2 μm) to remove cell debris. […] Kds were determined using an 11-point 3-fold compound dilution series with one DMSO control point. […] The bromodomain concentration in the eluates was measured by qPCR. […] Most Kds were determined using a compound top concentration=10,000 nM. […] Binding Constants (Kds): Binding constants (Kds) were calculated with a standard dose-response curve using the Hill equation: The Hill Slope was set to −1. […]

The target of assay [6] is T6, WRD9(2) (Homo sapiens, UniProt Q9NSI6).
T6 construct: T7 phage strains displaying bromodomains were grown in parallel; host or cells: T7 phage grown in E. coli host derived from BL21
T6 sequence (Q9NSI6 1313-1418 limits assumed): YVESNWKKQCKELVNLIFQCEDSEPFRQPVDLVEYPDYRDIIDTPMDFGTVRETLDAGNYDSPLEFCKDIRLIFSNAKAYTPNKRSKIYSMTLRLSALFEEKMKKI
Put plainly: BROMOscan Kd determination WRD9(2). The assay is classed as binding. As to the method:
as §2

For assay [7], the target named is T7, PBRM1(2) (Homo sapiens, UniProt Q86U86).
T7 construct: FALZ, PBRM1-BD2, BPRM1-BDS, TAF1-BD2, TAF1L-BD2; host or cells: T7 phage grown in E. coli host derived from BL21
T7 sequence (Q86U86 177-287 limits assumed): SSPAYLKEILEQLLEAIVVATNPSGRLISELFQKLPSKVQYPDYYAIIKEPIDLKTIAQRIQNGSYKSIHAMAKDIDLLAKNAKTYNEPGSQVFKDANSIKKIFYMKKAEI
Put plainly: BROMOscan Kd determination PBRM1(2). The assay is classed as binding. Here is the method:
as §2

Assay [8] concerns the target T8, PCAF (Homo sapiens, UniProt Q92831).
T8 construct: T7 phage strains displaying bromodomains were grown in parallel; host or cells: T7 phage grown in E. coli host derived from BL21
The assay can be described thus: BROMOscan Kd determination PCAF. Type of assay: binding. As to the method:
as §2

In assay [9] the target is T9, BRD3(1, 2) (Homo sapiens, UniProt Q15059).
T9 construct: T7 phage strains displaying bromodomains were grown in parallel; made in house; host or cells: T7 phage grown in an E. coli host derived from the BL21 strain
T9 sequence (Q15059 24-416 limits assumed): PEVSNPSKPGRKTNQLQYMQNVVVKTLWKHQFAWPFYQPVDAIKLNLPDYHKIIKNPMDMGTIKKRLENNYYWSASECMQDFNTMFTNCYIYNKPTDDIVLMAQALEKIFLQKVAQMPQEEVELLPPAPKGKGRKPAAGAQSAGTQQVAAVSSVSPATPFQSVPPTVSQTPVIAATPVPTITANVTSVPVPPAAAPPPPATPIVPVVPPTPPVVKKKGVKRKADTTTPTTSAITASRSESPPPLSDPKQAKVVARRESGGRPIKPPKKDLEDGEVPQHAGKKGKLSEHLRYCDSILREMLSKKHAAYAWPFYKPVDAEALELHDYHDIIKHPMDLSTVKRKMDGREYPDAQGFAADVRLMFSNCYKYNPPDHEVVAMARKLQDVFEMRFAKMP
The assay can be described thus: BROMOscan Kd determination BRD3(1, 2). The assay is classed as binding. Here is the method: as §2

Assay [10] addresses T10, BRD4(1, 2) (Homo sapiens, UniProt O60885).
T10 construct: T7 phage strains displaying bromodomains were grown in parallel; made in house; host or cells: T7 phage grown in an E. coli host derived from the BL21 strain
The assay can be described thus: BROMOscan Kd determination BRD4(1, 2). Type of assay: binding. Here is the method: as §2

Assay [11] concerns the target T11, ATAD2A (Homo sapiens, UniProt Q6PL18).
T11 construct: T7 phage strains displaying bromodomains were grown in parallel; made in house; host or cells: T7 phage grown in an E. coli host derived from the BL21 strain
Put plainly: BROMOscan Kd determination ATAD2A. The assay is classed as binding. As to the method:
as §2

Assay [12] concerns the target T2, BRPF3. The assay can be described thus: BROMOscan Kd determination BRPF3. The assay is classed as binding. Here is the method:
as §2

The target in assay [13] is T12, ATAD2B (Homo sapiens, UniProt Q9ULI0).
T12 construct: T7 phage strains displaying bromodomains were grown in parallel; made in house; host or cells: T7 phage grown in an E. coli host derived from the BL21 strain
T12 sequence (Q9ULI0 951-1066 limits assumed): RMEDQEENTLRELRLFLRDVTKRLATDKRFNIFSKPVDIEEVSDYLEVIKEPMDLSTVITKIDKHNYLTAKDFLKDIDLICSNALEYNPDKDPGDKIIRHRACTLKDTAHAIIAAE
Put plainly: BROMOscan Kd determination ATAD2B. The assay is classed as binding. Here is the method:
as §2

In assay [14] the target is T13, TRIM33(PHD, Bromo.) (Homo sapiens, UniProt Q9UPN9).
T13 construct: TRIM33(PHD, Bromo.); the phage DNA is read by qPCR
T13 sequence (Q9UPN9 whole entry): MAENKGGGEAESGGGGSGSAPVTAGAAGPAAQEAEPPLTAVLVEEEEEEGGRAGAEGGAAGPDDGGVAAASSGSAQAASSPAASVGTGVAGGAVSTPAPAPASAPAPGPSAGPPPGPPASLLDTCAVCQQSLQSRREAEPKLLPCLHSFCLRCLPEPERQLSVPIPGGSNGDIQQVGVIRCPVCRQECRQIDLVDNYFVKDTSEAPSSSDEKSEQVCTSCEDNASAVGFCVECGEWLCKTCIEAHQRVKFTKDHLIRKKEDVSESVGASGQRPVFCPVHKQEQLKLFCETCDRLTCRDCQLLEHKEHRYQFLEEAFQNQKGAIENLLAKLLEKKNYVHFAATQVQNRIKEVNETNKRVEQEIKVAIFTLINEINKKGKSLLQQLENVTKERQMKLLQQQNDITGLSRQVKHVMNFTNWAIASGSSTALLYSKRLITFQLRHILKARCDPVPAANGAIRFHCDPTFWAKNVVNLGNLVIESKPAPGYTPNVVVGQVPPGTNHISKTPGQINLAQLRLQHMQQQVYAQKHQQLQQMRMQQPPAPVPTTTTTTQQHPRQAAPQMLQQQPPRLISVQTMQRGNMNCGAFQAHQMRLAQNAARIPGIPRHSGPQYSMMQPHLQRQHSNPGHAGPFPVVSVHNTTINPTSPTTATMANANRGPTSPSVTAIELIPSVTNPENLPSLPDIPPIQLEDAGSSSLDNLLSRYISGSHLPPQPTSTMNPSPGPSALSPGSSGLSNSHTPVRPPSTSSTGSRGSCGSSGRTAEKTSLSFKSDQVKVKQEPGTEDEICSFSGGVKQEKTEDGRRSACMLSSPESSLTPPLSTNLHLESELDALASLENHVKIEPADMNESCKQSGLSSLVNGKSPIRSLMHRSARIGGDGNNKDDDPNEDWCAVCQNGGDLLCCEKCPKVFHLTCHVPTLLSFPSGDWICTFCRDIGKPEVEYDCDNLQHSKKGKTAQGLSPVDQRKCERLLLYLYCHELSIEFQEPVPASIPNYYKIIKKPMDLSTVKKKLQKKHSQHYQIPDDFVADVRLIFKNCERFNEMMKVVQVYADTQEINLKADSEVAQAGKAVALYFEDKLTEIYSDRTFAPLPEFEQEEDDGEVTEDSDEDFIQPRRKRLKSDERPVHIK
The assay can be described thus: BROMOscan Kd determination TRIM33(PHD, Bromo.). Type of assay: binding. As to the method:
as §2

In assay [15] the target is T14, TAF1(2) (Homo sapiens, UniProt P21675).
T14 construct: FALZ, PBRM1-BD2, BPRM1-BDS, TAF1-BD2, TAF1L-BD2; host or cells: T7 phage grown in E. coli host derived from BL21
T14 sequence (P21675 1519-1628 limits assumed): as the sequence (Q8IZX4 1517-1626 limits assumed) above, with M46V, V51M, I102V, I107L counted along it
Put plainly: BROMOscan Kd determination TAF1(2). Type of assay: binding. As to the method:
as §2

Assay [16] concerns the target T15, BRD8(2) (Homo sapiens, UniProt Q9H0E9).
T15 construct: T7 phage strains displaying bromodomains were grown; host or cells: T7 phage in E. coli derived from BL21
Put plainly: BROMOscan Kd determination BRD8(2). Type of assay: binding. Here is the method: as §2

T2 sequence (Q9ULD4 589-693 limits assumed): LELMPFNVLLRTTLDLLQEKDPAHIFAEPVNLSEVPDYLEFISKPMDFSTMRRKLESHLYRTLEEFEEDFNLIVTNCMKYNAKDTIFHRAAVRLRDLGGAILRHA
T8 sequence (Q92831 723-827 limits assumed): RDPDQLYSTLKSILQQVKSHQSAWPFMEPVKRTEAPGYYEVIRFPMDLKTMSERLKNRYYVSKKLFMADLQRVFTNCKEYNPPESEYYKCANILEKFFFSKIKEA
T1 sequence (O95696 562-666 limits assumed): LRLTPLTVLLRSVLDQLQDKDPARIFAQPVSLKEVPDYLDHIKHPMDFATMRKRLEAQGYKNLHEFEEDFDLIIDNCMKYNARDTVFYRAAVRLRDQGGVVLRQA
T4 sequence (P51532 1453-1564 limits assumed): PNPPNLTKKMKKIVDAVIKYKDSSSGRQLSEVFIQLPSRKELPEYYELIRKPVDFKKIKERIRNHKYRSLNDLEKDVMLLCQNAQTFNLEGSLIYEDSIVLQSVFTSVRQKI
T11 sequence (Q6PL18 980-1092 limits assumed): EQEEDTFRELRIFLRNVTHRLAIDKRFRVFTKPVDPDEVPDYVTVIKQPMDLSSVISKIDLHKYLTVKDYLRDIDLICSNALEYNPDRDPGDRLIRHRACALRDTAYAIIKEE
T15 sequence (Q9H0E9 1099-1207 limits assumed): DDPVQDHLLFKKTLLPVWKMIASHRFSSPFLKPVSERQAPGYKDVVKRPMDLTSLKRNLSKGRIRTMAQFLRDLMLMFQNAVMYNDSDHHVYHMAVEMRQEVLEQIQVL

Regarding `COc1ccc(S(=O)(=O)N2CCOCC2)cc1NC(=O)c1[nH]c(C)c2c1CCCCC2=O` [Compound 13, N-(2-methoxy-5-(morpholinosulfonyl)phenyl)-3-methyl-4-oxo-2,4,5,6,7,8-hexahydrocyclohepta[c]pyrrole-1-carboxamide], the “% Ctrl @ 10 000 nM BRD1” value in assay [1] is given as 26 % Ctrl. For the same compound, the “% Ctrl @ 10 000 nM BRPF3” value in assay [2] came to 35 % Ctrl. Besides, the “% Ctrl @ 10 000 nM EP300” value in assay [3] turned out to be 1.4 % Ctrl. Besides, in assay [4], the “% Ctrl @ 10 000 nM SMARCA4” value is given as 71 % Ctrl.
As for `Cc1[nH]c(-c2cc(N)ccc2Cl)c2c1C(=O)CCCC2` [Compound 23], the Kd (commonly the free concentration of one partner at which half of the binding sites on the other are occupied at equilibrium, for simple one-to-one binding) in [5] is 6.8 µM; in assay [6], greater than 10 µM; in [7], 4.2 µM; in assay [8], greater than 10 µM; in assay [9] it was 0.1 µM; in [10], 0.16 µM. In addition, the Kd in [11] is greater than 10 µM; in assay [12], 6 µM; in [13] it was greater than 10 µM; in [14] it was 7.7 µM; in assay [15], 4.1 µM; in [16] it was greater than 10 µM.
